The target of one assay is Mcl-1 (Homo sapiens (Human), UniProt Q07820). As to the kind of experiment: Fluorescence polarization anisotropy (FPA) competition assay, FITC-Bak or FITC-Bim BH3 peptide. The class given is binding. The conditions noted are these: read-out: Ki for Inhibition of Mcl-1 by FPA assay. (Fluorescence polarisation rises when a labelled molecule tumbles more slowly, as on binding a larger partner.)

In assay [1] the test system is H929 human cancer cell lines. Briefly: Cellular viability / proliferation (Cell TiterGlo, 72 h). The class given is cell-based. The essentials:
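H929 cells plated at 1,000/well in 10% FBS medium received a 2-fold serial compound dilution (top 50 μM, DMSO <1%) 24 h later. After 72 h, viability was read by CellTiter-Glo luminescence. IC50 came from a four-parameter fit.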
(In ATP-based viability assays light output follows the ATP content of the culture.)

Setting [2] is: Homo sapiens, NCI-H929, 72 h, read-out: GI50 on cellular proliferation of H929 human cancer cell lines, H929 cells, 72 h, Cell TiterGlo, 10% FBS.
Setting [3] is: read-out: GI50 on cellular proliferation of H929 human cancer cell lines, H929 cells, 72 h, Cell TiterGlo, 10% FBS.

Like-named read-outs stand apart in the source and are kept apart here. Some results are limits rather than exact numbers.

In US11596639B2, “Substituted indole Mcl-1 inhibitors” (Vanderbilt University, priority 2016, dated 2023) one finds Ki and GI50 data, which are given here for 17 compounds.

Usually Ki stands for a measure of affinity in units of concentration, obtained from inhibition or displacement.

Mcl-1, sequence (Q07820 172-327): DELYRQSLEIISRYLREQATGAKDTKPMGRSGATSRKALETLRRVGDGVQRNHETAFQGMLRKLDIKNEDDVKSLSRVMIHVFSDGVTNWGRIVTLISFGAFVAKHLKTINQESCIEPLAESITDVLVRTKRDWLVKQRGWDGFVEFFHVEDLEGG

For `Cc1cccnc1Cn1c(C(=O)O)cc2cccc(N3C[C@@H](C)n4c(c(CCCOc5cc(C)c(Cl)c(C)c5)c5ccc(Cl)c(-c6c(C)nn(C)c6C)c54)C3=O)c21` [Example 387, (R)-7-(7-Chloro-10-(3-(4-chloro-3,5-dimethylphenoxy)propyl)-4-methyl-1-oxo-6-(1,3,5-trimethyl-1H-pyrazol-4-yl)-3,4-dihydropyrazino[1,2-a]indol-2(1H)-yl)-1-((3-methylpyridin-2-yl)methyl)-1H-indole-2-carboxylic acid], the Ki on Mcl-1 worked out at 2.1 nM. In addition, in assay [1] (setting [2]), the GI50 was determined as 3600 nM.

Turning to `Cc1cc(OCCCc2c3n(c4c(-c5c(C)nn(C)c5C)c(Cl)ccc24)[C@H](C)CN(c2cn(CCN4CCOCC4)c4cc(C(=O)O)ccc24)C3=O)cc(C)c1Cl` [Example 292, (R)-3-(7-chloro-10-(3-(4-chloro-3,5-dimethylphenoxy)propyl)-4-methyl-1-oxo-6-(1,3,5-trimethyl-1H-pyrazol-4-yl)-3,4-dihydropyrazino[1,2-a]indol-2(1H)-yl)-1-(2-morpholinoethyl)-1H-indole-6-carboxylic acid], the Ki on Mcl-1 was < 1 nM. In assay [1] (setting [2]), the GI50 worked out at 690 nM.

In the case of `Cc1cc(OCCCc2c3n(c4c(-c5c(C)n[nH]c5C)c(Cl)ccc24)CCCN(c2cc(C(=O)O)cc4c2ccn4C)C3=O)cc(C)c1Cl` [Example 72, 4-(8-chloro-11-(3-(4-chloro-3,5-dimethylphenoxy)propyl)-7-(3,5-dimethyl-1H-pyrazol-4-yl)-1-oxo-4,5-dihydro-1H-[1,4]diazepino[1,2-a]indol-2(3H)-yl)-1-methyl-1H-indole-6-carboxylic acid], the Ki at Mcl-1 was < 1 nM. The GI50 in assay [1] (setting [2]) turned out to be 4700 nM.

For `Cc1cc(OCCCc2c3n(c4c(-c5c(C)nn(C)c5C)c(Cl)ccc24)[C@H](C)CN(c2cn(Cc4ccccn4)c4cc(C(=O)O)ccc24)C3=O)cc(C)c1Cl` [Example 338, (R)-3-(7-Chloro-10-(3-(4-chloro-3,5-dimethylphenoxy)propyl)-4-methyl-1-oxo-6-(1,3,5-trimethyl-1H-pyrazol-4-yl)-3,4-dihydropyrazino[1,2-a]indol-2(1H)-yl)-1-(pyridin-2-ylmethyl)-1H-indole-6-carboxylic acid], the Ki on Mcl-1 is < 1 nM. Further, the GI50 in assay [1] (setting [2]) turned out to be 2000 nM.

`Cc1nnc(Cn2c(C(=O)O)cc3cccc(N4C[C@@H](C)n5c(c(CCCOc6cc(C)c(Cl)c(C)c6)c6ccc(Cl)c(-c7c(C)nn(C)c7C)c65)C4=O)c32)o1` [Example 315, 7-[(4R)-7-chloro-10-[3-(4-chloro-3,5-dimethyl-phenoxy)propyl]-4-methyl-1-oxo-6-(1,3,5-trimethylpyrazol-4-yl)-3,4-dihydropyrazino[1,2-a]indol-2-yl]-1-[(5-methyl-1,3,4-oxadiazol-2-yl)methyl]indole-2-carboxylic acid]: on Mcl-1, the Ki was < 1 nM. Besides, the GI50 in assay [1] (setting [2]) turned out to be 2800 nM.

Take `Cc1cc(N2C[C@@H](C)n3c(c(CCCOc4cc(C)c(Cl)c(C)c4)c4ccc(Cl)c(-c5c(C)nn(CC6CCOCC6)c5C)c43)C2=O)c2c(c1)cc(C(=O)O)n2C` [Example 452, (R)-7-(7-Chloro-10-(3-(4-chloro-3,5-dimethylphenoxy)propyl)-6-(3,5-dimethyl-1-((tetrahydro-2H-pyran-4-yl)methyl)-1H-pyrazol-4-yl) 4-methyl-1-oxo-3,4-dihydropyrazino[1,2-a]indol-2(1H)-yl)-1,5-dimethyl-1H-indole-2-carboxylic acid]: on Mcl-1, the Ki was determined as 2.2 nM. Also, the GI50 in assay [1] (setting [2]) was 380 nM.

With `Cc1cc(OCCCc2c3n(c4c(-c5c(C)nn(C)c5C)c(Cl)ccc24)[C@H](C)CN(c2cn(C)c4ccc(C(=O)N(C)C)cc24)C3=O)cc(C)c1Cl` [Example 289, 3-[(4R)-7-chloro-10-[3-(4-chloro-3,5-dimethyl-phenoxy)propyl]-4-methyl-1-oxo-6-(1,3,5-trimethylpyrazol-4-yl)-3,4-dihydropyrazino[1,2-a]indol-2-yl]-N,N,1-trimethyl-indole-5-carboxamide], the Ki at Mcl-1 was 15 nM. For the same compound, the GI50 in assay [1] (setting [2]) came out at 5200 nM.

For `Cc1cc(OCCCc2c3n(c4c(-c5c(C)nn(C)c5C)c(Cl)ccc24)[C@H](C)CN(c2cn(CCN4CCOCC4)c4cc(C(=O)O)ccc24)C3=O)cc(C)c1Cl` [Example 293, (R)-3-(7-chloro-10-(3-(4-chloro-3,5-dimethylphenoxy)propyl)-4-methyl-1-oxo-6-(1,3,5-trimethyl-1H-pyrazol-4-yl)-3,4-dihydropyrazino[1,2-a]indol-2(1H)-yl)-1-(2-morpholinoethyl)-1H-indole-6-carboxylic acid], the Ki on Mcl-1 is < 1 nM. In assay [1] (setting [3]), the GI50 worked out at 810 nM.

Regarding `Cc1cc(OCCCc2c3n(c4c(-c5c(C)nn(C)c5C)c(Cl)ccc24)[C@H](C)CN(c2cccc4cc(C(=O)O)n(Cc5ncccn5)c24)C3=O)cc(C)c1Cl` [Example 329, (R)-7-(7-Chloro-10-(3-(4-chloro-3,5-dimethylphenoxy)propyl)-4-methyl-1-oxo-6-(1,3,5-trimethyl-1H-pyrazol-4-yl)-3,4-dihydropyrazino[1,2-a]indol-2(1H)-yl)-1-(pyrimidin-2-ylmethyl)-1H-indole-2-carboxylic acid], the Ki at Mcl-1 was < 1 nM. Besides, the GI50 in assay [1] (setting [2]) was 1100 nM.

With `Cc1cc(OCCCc2c3n(c4c(-c5c(C)nn(C)c5C)c(Cl)ccc24)[C@H](C)CN(c2cccc4c2cc(C(=O)O)n4CC2CCOCC2)C3=O)cc(C)c1Cl` [Example 198, (R)-4-(7-Chloro-10-(3-(4-chloro-3,5-dimethylphenoxy)propyl)-4-methyl-1-oxo-6-(1,3,5-trimethyl-1H-pyrazol-4-yl)-3,4-dihydropyrazino[1,2-a]indol-2(1H)-yl)-1-((tetrahydro-2H-pyran-4-yl)methyl)-1H-indole-2-carboxylic acid], the Ki at Mcl-1 is < 1 nM. The GI50 in assay [1] (setting [2]) came out at 610 nM.

In the case of `Cc1cc(OCCCc2c3n(c4c(-c5c(C)nn(C)c5C)c(Cl)ccc24)[C@H](C)CN(c2cn(C)c4ccccc24)C3=O)cc(C)c1Cl` [Example 288, (R)-7-chloro-10-(3-(4-chloro-3,5-dimethylphenoxy)propyl)-4-methyl-2-(1-methyl-1H-indol-3-yl)-6-(1,3,5-trimethyl-1H-pyrazol-4-yl)-3,4-dihydropyrazino[1,2-a]indol-1(2H)-one], on Mcl-1, the Ki worked out at 3 nM. In addition, the GI50 in assay [1] (setting [2]) stood at 8400 nM.

`Cc1cc(OCCCc2c3n(c4c(-c5c(C)nn(CC6CCN(C)CC6)c5C)c(Cl)ccc24)[C@H](C)CN(c2cn(C)c4c(C)cc(C(=O)O)cc24)C3=O)cc(C)c1Cl` [Example 161, (R)-3-(7-chloro-10-(3-(4-chloro-3,5-dimethylphenoxy)propyl)-6-(3,5-dimethyl-1-((1-methylpiperidin-4-yl)methyl)-1H-pyrazol-4-yl)-4-methyl-1-oxo-3,4-dihydropyrazino[1,2-a]indol-2(1H)-yl)-1,7-dimethyl-1H-indole-5-carboxylic acid]: the Ki at Mcl-1 was determined as 2.8 nM. For the same compound, the GI50 in assay [1] (setting [2]) turned out to be 480 nM.

On to `Cc1cc(OCCCc2c3n(c4c(-c5c(C)nn(C)c5C)c(Cl)ccc24)[C@H](C)CN(c2nn(C)c4cccc(C(=O)O)c24)C3=O)cc(C)c1Cl` [Example 175, (R)-3-(7-Chloro-10-(3-(4-chloro-3,5-dimethylphenoxy)propyl)-4-methyl-1-oxo-6-(1,3,5-trimethyl-1H-pyrazol-4-yl)-3,4-dihydropyrazino[1,2-a]indol-2(1H)-yl)-1-methyl-1H-indazole-4-carboxylic acid], for which the Ki on Mcl-1 was < 1 nM. Further, the GI50 in assay [1] (setting [3]) turned out to be 340 nM.

Regarding `Cc1cc(OCCCc2c3n(c4c(-c5c(C)nc(CNC6CCN(C)CC6)nc5C)c(Cl)ccc24)[C@H](C)CN(c2cn(C)c4ccc(C(=O)O)cc24)C3=O)cc(C)c1Cl` [Example 437, (R)-3-(7-Chloro-10-(3-(4-chloro-3,5-dimethylphenoxy)propyl)-6-(4,6-dimethyl-2-(((1-methylpiperidin-4-yl)amino)methyl)pyrimidin-5-yl)-4-methyl-1-oxo-3,4-dihydropyrazino[1,2-a]indol-2(1H)-yl)-1-methyl-1H-indole-5-carboxylic acid], at Mcl-1, the Ki is 4.7 nM. The GI50 in assay [1] (setting [2]) worked out at 1200 nM.

Regarding `Cc1cc(OCCCc2c3n(c4c(-c5c(C)nn(C)c5C)c(Cl)ccc24)[C@H](C)CN(c2cccc4cc(C(=O)O)ccc24)C3=O)cc(C)c1Cl` [Example 186, (R)-5-(7-Chloro-10-(3-(4-chloro-3,5-dimethylphenoxy)propyl)-4-methyl-1-oxo-6-(1,3,5-trimethyl-1H-pyrazol-4-yl)-3,4-dihydropyrazino[1,2-a]indol-2(1H)-yl)-2-naphthoic acid], the Ki on Mcl-1 is < 1 nM. In addition, in assay [1] (setting [2]), the GI50 is < 200 nM.

Regarding `CCn1cc(N2C[C@@H](C)n3c(c(CCCOc4cc(C)c(Cl)c(C)c4)c4ccc(Cl)c(-c5c(C)nn(C)c5C)c43)C2=O)c2cccc(C(=O)O)c21` [Example 83, (R)-3-(7-Chloro-10-(3-(4-chloro-3,5-dimethylphenoxy)propyl)-4-methyl-1-oxo-6-(1,3,5-trimethyl-1H-pyrazol-4-yl)-3,4-dihydropyrazino[1,2-a]indol-2(1H)-yl)-1-ethyl-1H-indole-7-carboxylic acid], on Mcl-1, the Ki is < 1 nM. Also, in assay [1] (setting [2]), the GI50 was 1100 nM.

For the compound `COCCOc1cc(N2C[C@@H](C)n3c(c(CCCOc4cc(C)c(Cl)c(C)c4)c4ccc(Cl)c(-c5c(C)nn(C)c5C)c43)C2=O)c2c(c1)cc(C(=O)O)n2C` [Example 461, (R)-7-(7-Chloro-10-(3-(4-chloro-3,5-dimethylphenoxy)propyl)-4-methyl-1-oxo-6-(1,3,5-trimethyl-1H-pyrazol-4-yl)-3,4-dihydropyrazino[1,2-a]indol-2(1H)-yl)-5-(2-methoxyethoxy)-1-methyl-1H-indole-2-carboxylic acid], the Ki at Mcl-1 was < 1 nM. The GI50 in assay [1] (setting [2]) was < 200 nM.
